PubChem BioAssay AID1963958 (Molecular Pharmacology Branch, DTP, NCI, 2024)

Tested on: MDA-MB-231 multicell spheroids, viability
Test: Anticancer human tumor MDA-MB-231 cell line growth inhibition [PI3K];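 also: spheroids exposed to agents for seven days before reading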;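 as to viability, T/C: percent of vehicle control luminescence with DMSO treated spheroids as 100%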
Settings: for IC50: curve of first compound; for viability, T/C: stronger effect = lower value
Method in brief: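 Combination activity was assessed by viability in multicellular tumor spheroids carrying HUVEC and MSC components. Agents were tested with PI3K inhibitors from a Cmax-based top dose (or 10 microM) downward in half-log increments.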

C[C@@H](NC(=O)c1ncnc(N)c1Cl)c1ncc(C(=O)Nc2cc(C(F)(F)F)c(Cl)cn2)s1 + COc1c(OCCCN2CCOCC2)ccc2c3n(c(=NC(=O)c4cnc(N)nc4)nc12)CCN3
IC50 (second compound 0.00316 µM): > 10 µM | IC50 (second compound 0.01 µM): > 10 µM | IC50 (second compound 0.0316 µM): 1.73 µM | IC50 (second compound 0.1 µM): 0.136 µM | IC50 (second compound 0.316 µM): < 0.0316 µM | IC50 (second compound 1 µM): < 0.0316 µM | viability, T/C (second compound 0.00316 µM, first compound 0.0316 µM): 123% | viability, T/C (second compound 0.00316 µM, first compound 0.1 µM): 110% | viability, T/C (second compound 0.00316 µM, first compound 0.316 µM): 100% | viability, T/C (second compound 0.00316 µM, first compound 1 µM): 84.2% | viability, T/C (second compound 0.00316 µM, first compound 3.16 µM): 71% | viability, T/C (second compound 0.00316 µM, first compound 10 µM): 59.1% | viability, T/C (second compound 0.01 µM, first compound 0.0316 µM): 108% | viability, T/C (second compound 0.01 µM, first compound 0.1 µM): 90.4% | viability, T/C (second compound 0.01 µM, first compound 0.316 µM): 81.6% | viability, T/C (second compound 0.01 µM, first compound 1 µM): 65.7% | viability, T/C (second compound 0.01 µM, first compound 3.16 µM): 59.8% | viability, T/C (second compound 0.01 µM, first compound 10 µM): 52.5% | viability, T/C (second compound 0.0316 µM, first compound 0.0316 µM): 75.9% | viability, T/C (second compound 0.0316 µM, first compound 0.1 µM): 72.9% | viability, T/C (second compound 0.0316 µM, first compound 0.316 µM): 61.5% | viability, T/C (second compound 0.0316 µM, first compound 1 µM): 54.5% | viability, T/C (second compound 0.0316 µM, first compound 3.16 µM): 45.9% | viability, T/C (second compound 0.0316 µM, first compound 10 µM): 39.9% | viability, T/C (second compound 0.1 µM, first compound 0.0316 µM): 61% | viability, T/C (second compound 0.1 µM, first compound 0.1 µM): 49.6% | viability, T/C (second compound 0.1 µM, first compound 0.316 µM): 45.4% | viability, T/C (second compound 0.1 µM, first compound 1 µM): 39.4% | viability, T/C (second compound 0.1 µM, first compound 3.16 µM): 34.2% | viability, T/C (second compound 0.1 µM, first compound 10 µM): 28.3% | viability, T/C (second compound 0.316 µM, first compound 0.0316 µM): 38.8% | viability, T/C (second compound 0.316 µM, first compound 0.1 µM): 35.3% | viability, T/C (second compound 0.316 µM, first compound 0.316 µM): 29.4% | viability, T/C (second compound 0.316 µM, first compound 1 µM): 23.4% | viability, T/C (second compound 0.316 µM, first compound 3.16 µM): 20.3% | viability, T/C (second compound 0.316 µM, first compound 10 µM): 15.9% | viability, T/C (second compound 1 µM, first compound 0.0316 µM): 33.4% | viability, T/C (second compound 1 µM, first compound 0.1 µM): 25.4% | viability, T/C (second compound 1 µM, first compound 0.316 µM): 23.2% | viability, T/C (second compound 1 µM, first compound 1 µM): 18.2% | viability, T/C (second compound 1 µM, first compound 3.16 µM): 15.3% | viability, T/C (second compound 1 µM, first compound 10 µM): 10.6%
